The numbers were not newly measured in patent US20230165895A1, “COMPOSITIONS AND METHODS FOR EYE HEAL TH COMPRISING AREDS AND VITAMIN B COMPLEX” (BAUSCH + LOMB IRELAND LIMITED, priority 2020, published 2023), which cites them from elsewhere.

Molecules are shown by their SMILES.

The conditions of this data set: no test, species or source described; stated next to the RDA.

Take `Cc1c(C)c2c(c(C)c1O)CC[C@@](C)(CCC[C@H](C)CCC[C@H](C)CCCC(C)C)O2` [vitamin E, alpha tocopherol]: the “levels at which no adverse effects have been observed” value was at most 800.0 mg.
